In the supplement of paper PMC10307832:

Tests used:
Assay in all cases: relative viability (nuclei count vs DMSO), 5 days (fraction); higher = more cells survive
TGX 221 + Crizotinib = compound: CC1=CN2C(=O)C=C(N=C2C(=C1)C(C)NC3=CC=CC=C3)N4CCOCC4 [TGX 221] + C[C@@H](Oc1cc(-c2cnn(C3CCNCC3)c2)cnc1N)c1c(Cl)ccc(F)c1Cl [Crizotinib] (partner 1 µM)
Outline: (§1)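 Each reported value is a median over duplicate plates. It expresses relative viability: treated-well nuclei count divided by vehicle-well nuclei count. Lung cancer cell lines in 1536-well plates were dosed by pin tool a day after seeding, alone with one drug or with a fixed anchor-drug dose plus five library-drug doses (not always all listed) in √10 steps, and nuclei were counted after 5 days.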

[1] = compound: C1=CC=C(C(=C1)C2=CC=C(C=C2)C3=CSC4=C3C(=C(C(=O)N4)C#N)O)O + N=C(N)NC(=N)NCCc1ccccc1 [Phenformin] (partner 250 µM)
Outline: as §1

TGX 221 + Phenformin = compound: CC1=CN2C(=O)C=C(N=C2C(=C1)C(C)NC3=CC=CC=C3)N4CCOCC4 [TGX 221] + N=C(N)NC(=N)NCCc1ccccc1 [Phenformin] (partner 250 µM)
Outline: as §1

[2] = compound: O=C(CCCCCCNC(=O)c1cnc(N(c2ccccc2)c2ccccc2)nc1)NO [Ricolinostat] + Cc1cc(Nc2cc(N3CCN(C)CC3)nc(Sc3ccc(NC(=O)C4CC4)cc3)n2)n[nH]1 [Tozasertib] (partner 0.1 µM)
Outline: as §1

Cell Line	relative viability (TGX 221 + Crizotinib; first compound 0.08 µM)	relative viability (TGX 221 + Crizotinib; first compound 0.253 µM)	relative viability (TGX 221 + Crizotinib; first compound 0.8 µM)	relative viability (TGX 221 + Crizotinib; first compound 2.53 µM)	relative viability (TGX 221 + Crizotinib; first compound 8 µM)	relative viability ([1]; first compound 0.08 µM)	relative viability ([1]; first compound 0.253 µM)	relative viability ([1]; first compound 0.8 µM)	relative viability ([1]; first compound 2.53 µM)	relative viability ([1]; first compound 8 µM)	relative viability (TGX 221 + Phenformin; first compound 0.08 µM)	relative viability (TGX 221 + Phenformin; first compound 0.253 µM)	relative viability (TGX 221 + Phenformin; first compound 0.8 µM)	relative viability (TGX 221 + Phenformin; first compound 2.53 µM)	relative viability (TGX 221 + Phenformin; first compound 8 µM)	relative viability ([2]; first compound 0.253 µM)	relative viability ([2]; first compound 0.8 µM)	relative viability ([2]; first compound 2.53 µM)	relative viability ([2]; first compound 0.08 µM)
A-427	0.958	0.924	0.879	0.776	0.824	0.234	0.313	0.315	0.328	0.31	0.341	0.297	0.307	0.39	0.326	0.198	0.182	0.174	
NCI-H1975	0.985	0.878	0.996	0.935	0.803	0.379	0.425	0.403	0.393	0.394	0.395	0.402	0.389	0.399	0.366	0.708	0.604	0.59	0.83
HCC-827	0.884	0.937	0.985	0.859	0.892	0.396	0.377	0.424	0.387	0.394	0.386	0.4	0.344	0.359	0.334	0.413	0.409	0.379	0.354
UMC-11	0.66	0.559	0.557	0.591	0.661	0.309	0.404	0.344	0.291	0.27	0.322	0.288	0.302	0.349	0.324	0.192	0.159	0.165	0.221
NCI-H3122	0.278	0.227	0.281	0.294	0.356	0.352	0.364	0.432	0.387	0.37	0.366	0.386	0.396	0.363	0.366	0.361	0.382	0.295	
LXF-289	0.813	0.832	0.808	0.774	0.82	0.491	0.538	0.553	0.507	0.485	0.496	0.479	0.546	0.458	0.538	0.201	0.22	0.19	0.192
NCI-H647	1.12	0.947	1.06	1.04	0.553	0.285	0.615	0.586	0.555	0.349	0.457	0.414	0.405	0.427	0.457	0.195	0.27	0.206	0.315
COR-L23	0.597	0.523	0.727	0.597	0.619	0.383	0.467	0.464	0.467	0.372	0.436	0.4	0.445	0.485	0.457	0.193	0.162	0.121	0.207
BEN	0.931	0.641	0.821	0.795	0.721	0.282	0.289	0.265	0.278	0.274	0.24	0.257	0.273	0.27	0.265	0.558	0.534	0.517	0.539
LC-2-ad	0.438	0.423	0.475	0.499	0.486	0.518	0.657	0.608	0.576	0.551	0.556	0.526	0.569	0.67	0.599	0.412	0.371	0.299	0.474
NCI-H650	0.729	0.655	0.624	0.689	0.534	0.474	0.531	0.448	0.465	0.44	0.433	0.461	0.404	0.417	0.439	0.675	0.673	0.467	0.671
NCI-H1563	0.846	0.832	0.766	0.736	0.666	0.63	0.714	0.702	0.622	0.679	0.708	0.618	0.671	0.654	0.597				
NCI-H1793						0.306	0.427	0.372	0.318	0.229	0.367	0.256	0.311	0.25	0.309	0.256	0.27	0.244	
HCC-78	0.385	0.334		0.294	0.274	0.608	0.872	0.64	0.609	0.568	0.675	0.641	0.533	0.558	0.604	0.33	0.347	0.27	
LCLC-97TM1	0.394	0.299	0.41	0.263	0.252	0.43	0.443	0.463	0.498	0.46	0.394	0.399	0.419	0.405	0.418	0.2	0.149	0.153	0.171
NCI-H2009	0.964	0.978	1	1.03	0.773	0.443	0.505	0.457	0.496	0.387	0.476	0.506	0.487	0.492	0.407	0.686	0.68	0.607	0.745
H3255	0.745	0.812	0.881	0.848	0.575	0.326	0.39	0.377	0.347	0.362	0.369	0.382	0.326	0.374	0.354	0.623	0.61	0.558	0.566
EPLC-272H	0.827	0.57	0.833		0.72	0.219	0.254	0.398	0.327	0.248	0.298	0.275	0.291	0.269	0.27	0.192	0.333	0.317	0.354
